These are literature values, as cited in US20040058975A1, “Method for fertility control” (Schering AG, priority 2002, published 2004).

Where two headings read alike, the source gives them in different places.

The test system of data set [1] is ovulation. Particulars: several mammalian species including rats, rabbits, sheep.
Data set [2] concerns ovulation. Particulars: women.
In data set [3] the test system is ovulation. As to conditions: monkeys.
Data set [4] addresses COX-2 (Homo sapiens, UniProt P35354). As to conditions: humans.
Data set [5] has as its system ovulation. As to conditions: COX-2 deficient mice.

Chain of COX-2 (P35354 18-604): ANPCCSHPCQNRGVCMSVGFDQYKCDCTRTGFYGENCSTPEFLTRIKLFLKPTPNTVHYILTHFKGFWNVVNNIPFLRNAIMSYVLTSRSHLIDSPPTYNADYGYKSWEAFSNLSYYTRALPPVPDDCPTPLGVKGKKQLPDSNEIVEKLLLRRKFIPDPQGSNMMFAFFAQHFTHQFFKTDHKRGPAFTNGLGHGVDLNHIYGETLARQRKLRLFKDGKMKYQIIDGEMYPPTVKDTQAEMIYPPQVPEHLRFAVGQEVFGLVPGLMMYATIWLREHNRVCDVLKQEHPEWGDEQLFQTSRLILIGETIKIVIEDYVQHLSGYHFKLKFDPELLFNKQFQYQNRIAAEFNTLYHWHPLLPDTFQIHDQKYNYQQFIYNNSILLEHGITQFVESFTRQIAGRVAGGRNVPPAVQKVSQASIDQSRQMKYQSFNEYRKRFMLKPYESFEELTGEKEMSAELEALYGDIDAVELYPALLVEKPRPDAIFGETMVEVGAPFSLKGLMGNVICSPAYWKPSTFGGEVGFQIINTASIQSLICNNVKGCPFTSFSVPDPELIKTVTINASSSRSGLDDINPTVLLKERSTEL

For the molecule `CC(=O)Oc1ccccc1C(=O)O` [Aspirin], the ovulation entry in data set [1] was “may prevent ovulation”.

For `COc1ccc2c(c1)c(CC(=O)O)c(C)n2C(=O)c1ccc(Cl)cc1` [Indomethacin], the ovulation result is “may prevent ovulation” in data set [1], “block ovulation” in data set [2] and “block ovulation” in data set [3]. Take `COc1ccc2cc([C@H](C)C(=O)O)ccc2c1` [Naproxen]: the ovulation result in data set [1] is “may prevent ovulation”.

Take `CS(=O)(=O)c1ccc(C2=C(c3ccccc3)C(=O)OC2)cc1` [Rofecoxib, 4-(4-mesylphenyl)-3-phenylfuran-2(5H)-one]: in data set [4], the follicular rupture entry is “delayed follicular rupture” and the peripheral hormonal cycles result is recorded as “without affecting peripheral hormonal cycles”. On to `CCCCC[C@H](O)/C=C/[C@H]1[C@H](O)CC(=O)[C@@H]1C/C=C\CCCC(=O)O` [prostaglandin E2], for which the anovulation entry in data set [5] is listed as “restored”. In the case of Interleukin-1β: Interleukin-1β, in data set [5], the anovulation result is listed as “restored”.
